# Test results: ChEMBL document CHEMBL4507262, “Data for DCP probe A-1596586” (2021)
# What was measured:
# [1] = target: Serine/threonine-protein kinase PLK4 (Homo sapiens) (UniProt O00444); settings: Compound concentration 1000.0 nM
# [2] = target: LIM domain kinase 1 (Homo sapiens) (UniProt P53667); settings: Compound concentration 1000.0 nM
# [3] = target: Tyrosine-protein kinase JAK1 (Homo sapiens) (UniProt P23458); settings: Compound concentration 1000.0 nM
# [4] = target: Histamine H2 receptor (Homo sapiens) (UniProt P25021); experiment: H2 (h) Eurofins-Cerep binding assay; parameters: ligand concentration 0.075 nM; settings: filed as antagonist, Compound concentration 10.0 uM
# Histamine H2 receptor (Homo sapiens), sequence (P25021 whole entry): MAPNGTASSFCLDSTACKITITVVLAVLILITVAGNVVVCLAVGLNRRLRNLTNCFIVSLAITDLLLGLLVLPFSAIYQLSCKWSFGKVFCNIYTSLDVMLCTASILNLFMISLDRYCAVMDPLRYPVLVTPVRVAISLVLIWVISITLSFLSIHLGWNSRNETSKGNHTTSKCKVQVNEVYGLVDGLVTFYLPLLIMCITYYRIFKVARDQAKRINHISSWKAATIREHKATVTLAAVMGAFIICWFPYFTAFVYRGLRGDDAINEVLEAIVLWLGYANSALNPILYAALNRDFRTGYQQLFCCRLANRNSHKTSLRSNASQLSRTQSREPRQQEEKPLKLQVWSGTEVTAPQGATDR
# [5] = target: Mitogen-activated protein kinase 14 (Homo sapiens) (UniProt Q16539); settings: Compound concentration 1000.0 nM
# Mitogen-activated protein kinase 14 (Homo sapiens), sequence (Q16539 whole entry): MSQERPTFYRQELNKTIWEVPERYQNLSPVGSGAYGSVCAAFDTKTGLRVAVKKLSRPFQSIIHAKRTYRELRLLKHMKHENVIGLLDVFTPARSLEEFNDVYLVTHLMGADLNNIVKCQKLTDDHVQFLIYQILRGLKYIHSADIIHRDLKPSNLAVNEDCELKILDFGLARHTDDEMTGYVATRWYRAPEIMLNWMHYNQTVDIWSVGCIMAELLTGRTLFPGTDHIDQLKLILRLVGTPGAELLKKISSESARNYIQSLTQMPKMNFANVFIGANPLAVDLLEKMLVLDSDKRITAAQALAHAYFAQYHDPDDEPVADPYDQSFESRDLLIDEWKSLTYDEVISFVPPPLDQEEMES
# [6] = target: Ephrin type-A receptor 4 (Homo sapiens) (UniProt P54764); settings: Compound concentration 1000.0 nM
# [7] = target: Mitogen-activated protein kinase kinase kinase 14 (Homo sapiens) (UniProt Q99558); settings: Compound concentration 1000.0 nM
# [8] = target: Mitotic checkpoint serine/threonine-protein kinase BUB1 (Homo sapiens) (UniProt O43683); settings: Compound concentration 1000.0 nM
# [9] = target: Myosin-IIIb (Homo sapiens) (UniProt Q8WXR4); settings: Compound concentration 1000.0 nM
# Myosin-IIIb (Homo sapiens), sequence (Q8WXR4 whole entry): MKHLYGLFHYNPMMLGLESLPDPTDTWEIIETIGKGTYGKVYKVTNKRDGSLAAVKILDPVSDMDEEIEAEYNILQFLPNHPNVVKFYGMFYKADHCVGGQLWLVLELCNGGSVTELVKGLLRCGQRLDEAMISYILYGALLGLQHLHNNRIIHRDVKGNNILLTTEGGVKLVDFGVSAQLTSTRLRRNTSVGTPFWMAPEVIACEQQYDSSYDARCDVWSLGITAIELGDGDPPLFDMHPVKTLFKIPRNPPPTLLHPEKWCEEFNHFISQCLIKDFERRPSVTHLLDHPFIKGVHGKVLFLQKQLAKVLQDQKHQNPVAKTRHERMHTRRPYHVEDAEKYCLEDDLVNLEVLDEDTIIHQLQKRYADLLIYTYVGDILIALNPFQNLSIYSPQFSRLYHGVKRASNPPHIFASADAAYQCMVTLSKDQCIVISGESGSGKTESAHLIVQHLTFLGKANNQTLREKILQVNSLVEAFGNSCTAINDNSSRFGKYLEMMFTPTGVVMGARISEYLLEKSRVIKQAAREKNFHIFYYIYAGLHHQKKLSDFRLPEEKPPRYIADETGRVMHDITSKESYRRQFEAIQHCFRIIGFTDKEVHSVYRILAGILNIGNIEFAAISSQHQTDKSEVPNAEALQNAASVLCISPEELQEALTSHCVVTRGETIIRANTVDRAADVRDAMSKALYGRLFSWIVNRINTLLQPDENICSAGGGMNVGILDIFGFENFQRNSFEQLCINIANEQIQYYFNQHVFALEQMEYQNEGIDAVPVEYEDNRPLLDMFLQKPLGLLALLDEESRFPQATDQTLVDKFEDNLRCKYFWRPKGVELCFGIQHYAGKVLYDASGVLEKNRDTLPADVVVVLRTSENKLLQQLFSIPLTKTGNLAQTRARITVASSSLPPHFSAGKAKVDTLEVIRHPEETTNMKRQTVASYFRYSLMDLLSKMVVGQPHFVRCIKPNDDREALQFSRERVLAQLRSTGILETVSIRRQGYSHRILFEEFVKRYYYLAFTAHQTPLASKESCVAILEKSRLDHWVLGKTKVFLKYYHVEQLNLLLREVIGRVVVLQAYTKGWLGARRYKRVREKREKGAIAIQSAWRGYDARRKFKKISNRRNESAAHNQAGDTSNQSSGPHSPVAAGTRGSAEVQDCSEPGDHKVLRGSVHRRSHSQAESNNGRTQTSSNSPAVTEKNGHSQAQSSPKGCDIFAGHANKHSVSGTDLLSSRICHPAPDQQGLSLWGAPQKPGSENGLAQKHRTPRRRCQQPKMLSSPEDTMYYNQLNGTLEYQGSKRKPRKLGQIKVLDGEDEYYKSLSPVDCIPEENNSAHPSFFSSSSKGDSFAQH
# [10] = target: RAF proto-oncogene serine/threonine-protein kinase (Homo sapiens) (UniProt P04049); settings: Compound concentration 1000.0 nM
# [11] = system: ALK tyrosine kinase receptor (Homo sapiens), Q9UM73 [C1156Y]; settings: Compound concentration 1000.0 nM
# [12] = target: 5-hydroxytryptamine receptor 7 (Homo sapiens) (UniProt P34969); experiment: 5-HT7 (h) Eurofins-Cerep binding assay; parameters: ligand concentration 4 nM; settings: filed as agonist, Compound concentration 10.0 uM
# 5-hydroxytryptamine receptor 7 (Homo sapiens), sequence (P34969 whole entry): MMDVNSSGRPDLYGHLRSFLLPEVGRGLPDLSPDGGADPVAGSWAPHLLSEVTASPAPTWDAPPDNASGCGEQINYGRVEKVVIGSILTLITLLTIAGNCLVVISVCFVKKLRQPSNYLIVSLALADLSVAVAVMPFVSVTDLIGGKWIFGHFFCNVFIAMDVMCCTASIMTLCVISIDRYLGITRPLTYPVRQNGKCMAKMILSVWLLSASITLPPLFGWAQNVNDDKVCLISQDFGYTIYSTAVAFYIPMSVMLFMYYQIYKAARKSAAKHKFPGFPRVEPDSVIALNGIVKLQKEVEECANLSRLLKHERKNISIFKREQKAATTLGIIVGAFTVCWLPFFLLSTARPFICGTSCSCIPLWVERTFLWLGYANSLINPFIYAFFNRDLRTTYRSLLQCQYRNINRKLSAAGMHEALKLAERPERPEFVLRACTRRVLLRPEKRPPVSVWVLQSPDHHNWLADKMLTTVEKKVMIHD
# [13] = target: Ribosomal protein S6 kinase alpha-1 (Homo sapiens) (UniProt Q15418); settings: Compound concentration 1000.0 nM
# [14] = target: Serine/threonine-protein kinase BRSK1 (Homo sapiens) (UniProt Q8TDC3); settings: Compound concentration 1000.0 nM
# [15] = target: Mitogen-activated protein kinase kinase kinase 9 (Homo sapiens) (UniProt P80192); settings: Compound concentration 1000.0 nM
# [16] = target: Tumor necrosis factor (Homo sapiens) (UniProt P01375); experiment: TNF-alpha (h) Eurofins-Cerep binding assay; parameters: ligand concentration 0.1 nM; settings: filed as agonist, Compound concentration 10.0 uM
# [17] = system: Tyrosine-protein kinase ABL1 (Homo sapiens), P00519 [M351T]; settings: Compound concentration 1000.0 nM
# [18] = target: Tyrosine-protein kinase JAK2 (Homo sapiens) (UniProt O60674); settings: Compound concentration 1000.0 nM
# [19] = target: Mitogen-activated protein kinase kinase kinase 12 (Homo sapiens) (UniProt Q12852); settings: Compound concentration 1000.0 nM
# [20] = target: Type-2 angiotensin II receptor (Homo sapiens) (UniProt P50052); experiment: AT2 (h) Eurofins-Cerep binding assay; parameters: ligand concentration 0.01 nM; settings: filed as agonist, Compound concentration 10.0 uM
# [21] = system: Tyrosine-protein kinase ABL1 (Homo sapiens), P00519 [E255K]; settings: Compound concentration 1000.0 nM
# [22] = target: Mitogen-activated protein kinase kinase kinase 1 (Homo sapiens) (UniProt Q13233); settings: Compound concentration 1000.0 nM
# [23] = target: Mitogen-activated protein kinase kinase kinase 19 (Homo sapiens) (UniProt Q56UN5); settings: Compound concentration 1000.0 nM
# Mitogen-activated protein kinase kinase kinase 19 (Homo sapiens), sequence (Q56UN5 whole entry): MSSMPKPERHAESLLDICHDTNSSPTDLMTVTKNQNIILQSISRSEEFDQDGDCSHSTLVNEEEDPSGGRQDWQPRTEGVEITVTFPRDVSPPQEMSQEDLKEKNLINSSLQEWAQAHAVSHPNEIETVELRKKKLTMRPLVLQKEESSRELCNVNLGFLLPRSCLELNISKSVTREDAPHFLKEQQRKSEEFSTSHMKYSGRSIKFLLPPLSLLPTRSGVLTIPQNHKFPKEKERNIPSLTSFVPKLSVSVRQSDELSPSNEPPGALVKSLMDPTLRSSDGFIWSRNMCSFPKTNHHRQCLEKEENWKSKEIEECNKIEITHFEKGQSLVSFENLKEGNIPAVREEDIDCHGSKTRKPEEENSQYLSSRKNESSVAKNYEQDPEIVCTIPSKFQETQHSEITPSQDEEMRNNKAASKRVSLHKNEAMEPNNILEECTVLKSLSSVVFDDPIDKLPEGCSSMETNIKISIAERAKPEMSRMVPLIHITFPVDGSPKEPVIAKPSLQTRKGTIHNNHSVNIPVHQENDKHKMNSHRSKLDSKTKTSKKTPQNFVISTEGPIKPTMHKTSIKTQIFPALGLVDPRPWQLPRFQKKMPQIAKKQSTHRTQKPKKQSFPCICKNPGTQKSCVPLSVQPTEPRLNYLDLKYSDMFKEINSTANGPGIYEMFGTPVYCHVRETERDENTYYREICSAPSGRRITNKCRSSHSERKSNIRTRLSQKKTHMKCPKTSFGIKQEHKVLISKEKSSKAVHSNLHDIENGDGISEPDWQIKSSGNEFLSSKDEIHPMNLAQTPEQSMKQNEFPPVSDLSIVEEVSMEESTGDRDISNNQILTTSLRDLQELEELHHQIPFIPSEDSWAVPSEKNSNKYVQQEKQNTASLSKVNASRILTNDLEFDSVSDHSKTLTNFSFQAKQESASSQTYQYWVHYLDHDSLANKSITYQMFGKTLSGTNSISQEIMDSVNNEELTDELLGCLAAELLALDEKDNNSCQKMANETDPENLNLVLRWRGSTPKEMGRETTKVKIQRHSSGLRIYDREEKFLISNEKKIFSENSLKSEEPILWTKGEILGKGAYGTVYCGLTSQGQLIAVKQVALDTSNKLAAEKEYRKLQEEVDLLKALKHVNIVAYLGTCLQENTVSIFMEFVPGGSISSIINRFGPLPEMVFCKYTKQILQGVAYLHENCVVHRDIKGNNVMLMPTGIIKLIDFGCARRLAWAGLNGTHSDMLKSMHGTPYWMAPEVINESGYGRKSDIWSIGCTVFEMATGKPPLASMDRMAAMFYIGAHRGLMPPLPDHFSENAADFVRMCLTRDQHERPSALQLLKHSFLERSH
# [24] = system: Tyrosine-protein kinase ABL1 (Homo sapiens), P00519 [T315I]; settings: Compound concentration 1000.0 nM
# [25] = target: Rhodopsin kinase GRK7 (Homo sapiens) (UniProt Q8WTQ7); settings: Compound concentration 1000.0 nM
# Rhodopsin kinase GRK7 (Homo sapiens), sequence (Q8WTQ7 whole entry): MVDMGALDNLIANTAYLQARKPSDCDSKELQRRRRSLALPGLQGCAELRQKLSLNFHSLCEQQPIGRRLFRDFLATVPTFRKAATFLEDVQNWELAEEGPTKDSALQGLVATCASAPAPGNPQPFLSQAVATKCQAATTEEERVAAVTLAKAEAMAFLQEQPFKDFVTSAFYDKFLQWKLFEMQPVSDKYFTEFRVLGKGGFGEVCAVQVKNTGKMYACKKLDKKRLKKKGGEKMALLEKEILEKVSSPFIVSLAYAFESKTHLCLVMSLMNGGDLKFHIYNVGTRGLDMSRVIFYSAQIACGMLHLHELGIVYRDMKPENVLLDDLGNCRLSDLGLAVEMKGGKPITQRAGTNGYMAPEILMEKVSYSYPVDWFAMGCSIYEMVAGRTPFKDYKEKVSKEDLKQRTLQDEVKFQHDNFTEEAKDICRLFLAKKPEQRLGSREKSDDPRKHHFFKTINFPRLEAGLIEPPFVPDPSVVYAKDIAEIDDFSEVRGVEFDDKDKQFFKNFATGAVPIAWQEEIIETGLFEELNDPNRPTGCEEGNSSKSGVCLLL
# [26] = target: Histamine H2 receptor (Homo sapiens) (UniProt P25021); settings: Compound concentration 10.0 uM
# [27] = target: Tyrosine-protein kinase Fgr (Homo sapiens) (UniProt P09769); settings: Compound concentration 1000.0 nM
# [28] = target: T1, Muscarinic acetylcholine receptor M4 (Homo sapiens) (UniProt P08173); settings: Compound concentration 10.0 uM
# T1 sequence (whole entry): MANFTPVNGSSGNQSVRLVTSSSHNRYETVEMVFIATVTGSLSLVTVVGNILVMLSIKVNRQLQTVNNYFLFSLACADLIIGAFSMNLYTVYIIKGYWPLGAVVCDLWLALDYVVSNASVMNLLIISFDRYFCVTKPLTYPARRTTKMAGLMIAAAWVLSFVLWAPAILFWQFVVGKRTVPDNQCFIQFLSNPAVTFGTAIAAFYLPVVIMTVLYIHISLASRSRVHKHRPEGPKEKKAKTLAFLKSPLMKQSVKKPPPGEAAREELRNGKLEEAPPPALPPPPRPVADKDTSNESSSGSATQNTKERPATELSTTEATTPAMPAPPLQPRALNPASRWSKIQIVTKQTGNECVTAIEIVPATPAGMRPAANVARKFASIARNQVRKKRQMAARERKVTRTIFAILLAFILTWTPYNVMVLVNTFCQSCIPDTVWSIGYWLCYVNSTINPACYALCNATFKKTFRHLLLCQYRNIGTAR
# [29] = target: Myosin light chain kinase, smooth muscle (Homo sapiens) (UniProt Q15746); settings: Compound concentration 1000.0 nM
# [30] = target: RAC-gamma serine/threonine-protein kinase (Homo sapiens) (UniProt Q9Y243); settings: Compound concentration 1000.0 nM
# [31] = target: Receptor-type tyrosine-protein kinase FLT3 (Homo sapiens) (UniProt P36888); settings: Compound concentration 1000.0 nM
# [32] = target: Serine/threonine-protein kinase ULK3 (Homo sapiens) (UniProt Q6PHR2); settings: Compound concentration 1000.0 nM
# [33] = target: MAP kinase-interacting serine/threonine-protein kinase 1 (Homo sapiens) (UniProt Q9BUB5); settings: Compound concentration 1000.0 nM
# [34] = target: Mitogen-activated protein kinase 8 (Homo sapiens) (UniProt P45983); settings: Compound concentration 1000.0 nM
# [35] = target: Serine/threonine-protein kinase Sgk1 (Homo sapiens) (UniProt O00141); settings: Compound concentration 1000.0 nM
# [36] = target: Mitogen-activated protein kinase kinase kinase 11 (Homo sapiens) (UniProt Q16584); settings: Compound concentration 1000.0 nM
# [37] = target: Protein kinase C eta type (Homo sapiens) (UniProt P24723); settings: Compound concentration 1000.0 nM
# [38] = target: MAP kinase-activated protein kinase 2 (Homo sapiens) (UniProt P49137); settings: Compound concentration 1000.0 nM
# [39] = target: Alpha-2C adrenergic receptor (Homo sapiens) (UniProt P18825); settings: Compound concentration 10.0 uM
# LIM domain kinase 1 (Homo sapiens), sequence (P53667 whole entry, looked up, the tested form may be a part): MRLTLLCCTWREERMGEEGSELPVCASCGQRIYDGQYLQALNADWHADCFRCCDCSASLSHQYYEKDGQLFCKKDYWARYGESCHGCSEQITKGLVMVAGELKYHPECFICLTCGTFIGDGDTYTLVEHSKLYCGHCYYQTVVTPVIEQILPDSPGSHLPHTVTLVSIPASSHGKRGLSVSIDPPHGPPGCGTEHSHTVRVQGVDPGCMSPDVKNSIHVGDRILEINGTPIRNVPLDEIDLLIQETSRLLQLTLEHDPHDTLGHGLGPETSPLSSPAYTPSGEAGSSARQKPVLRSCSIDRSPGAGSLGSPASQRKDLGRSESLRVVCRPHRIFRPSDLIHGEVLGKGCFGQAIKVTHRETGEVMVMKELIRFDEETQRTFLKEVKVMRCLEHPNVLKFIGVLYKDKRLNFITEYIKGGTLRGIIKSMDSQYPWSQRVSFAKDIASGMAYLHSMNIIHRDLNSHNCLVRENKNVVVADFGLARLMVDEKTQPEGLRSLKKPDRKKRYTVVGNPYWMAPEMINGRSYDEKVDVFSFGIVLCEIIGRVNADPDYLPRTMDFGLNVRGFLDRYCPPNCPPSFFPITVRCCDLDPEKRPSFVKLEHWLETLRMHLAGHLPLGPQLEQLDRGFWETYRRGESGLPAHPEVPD
Structure (SMILES),residual activity [1],residual activity [2],residual activity [3],% Inhibition of Control Specific Binding (Mean n=2) [4],residual activity [5],residual activity [6],residual activity [7],residual activity [8],residual activity [9],residual activity [10],residual activity [11],% Inhibition of Control Specific Binding (Mean n=2) [12],residual activity [13],residual activity [14],residual activity [15],% Inhibition of Control Specific Binding (Mean n=2) [16],residual activity [17],residual activity [18],residual activity [19],% Inhibition of Control Specific Binding (Mean n=2) [20],other results
COc1ccc2c(c1)O[C@@H](c1ccc(OC)c(OC)c1)C[C@H]2NC(=O)C1(c2ccc3c(c2)OC(F)(F)O3)CC1 [A-1596586],84%,100%,90%,-18.2%,99%,100%,87%,99%,100%,100%,84%,-6.3%,98%,99%,100%,-9.2%,78%,75%,80%,4.9%,residual activity [21]: 80%; residual activity [22]: 77%; residual activity [23]: 83%; residual activity [24]: 75%; residual activity [25]: 100%; inhibition [26]: -6.08%; residual activity [27]: 94%; inhibition [28]: -2.72%; residual activity [29]: 85%; residual activity [30]: 100%; residual activity [31]: 80%; residual activity [32]: 85%; residual activity [33]: 78%; residual activity [34]: 91%; residual activity [35]: 85%; residual activity [36]: 100%; residual activity [37]: 96%; residual activity [38]: 100%; inhibition [39]: 15.8%
COc1ccc2c(c1)O[C@H](c1ccc(OC)c(OC)c1)C[C@@H]2NC(=O)C1(c2ccc3c(c2)OC(F)(F)O3)CC1 [A-1596584],89%,98%,100%,-14.1%,90%,91%,100%,100%,39%,100%,100%,-6.4%,100%,100%,93%,-3.3%,88%,98%,87%,-3.4%,residual activity [21]: 90%; residual activity [22]: 100%; residual activity [23]: 100%; residual activity [24]: 93%; residual activity [25]: 100%; inhibition [26]: -0.89%; residual activity [27]: 87%; inhibition [28]: 0.59%; residual activity [29]: 100%; residual activity [30]: 100%; residual activity [31]: 83%; residual activity [32]: 90%; residual activity [33]: 81%; residual activity [34]: 96%; residual activity [35]: 100%; residual activity [36]: 100%; residual activity [37]: 100%; residual activity [38]: 100%; inhibition [39]: 10.1%
